The record followed here is ChEMBL document CHEMBL1158917, “Elabunin, a New Cytotoxic Triterpene from an East African Medicinal Plant, Elaeodendron buchananii” (1990).

Converted amounts (≈) assume the structure as drawn.

The test system of the assay is L1210. Kind of assay: Cytotoxicity against mouse L1210 cells. Type of assay: functional. Conditions: read-out: ED50 (the source's name).

With `C=C(CCC=C(C)C)[C@H]1[C@H](O)C[C@]2(C)[C@@H]1CC[C@@H]1[C@@]3(C)CCC(=O)C(C)(C)[C@@H]3CC[C@]12C` [ELABUNIN], the EC50 is 1 µg/mL (≈ 2.27 µM).
